Laboratory results taken from ChEMBL document CHEMBL4414617, “Identification of 2-Imidazopyridine and 2-Aminopyridone Purinones as Potent Pan-Janus Kinase (JAK) Inhibitors for the Inhaled Treatment of Respiratory Diseases” (J Med Chem, 2019).
Each block holds one compound with its values, some of them ahead of it.

How the values were obtained:
[1] = target: Tyrosine-protein kinase JAK1 (Homo sapiens, UniProt P23458)
Description: Inhibition of recombinant human GST-tagged JAK1 (866 to 1154 residues) expressed in baculovirus expression system using PolyGT-Biotin as substrate measured after 3 to 20 hrs by HTRF assay

[2] = tested on: CHO-K1; assay: cells; assay type: ADME, cell-based; settings: Cricetulus griseus, CHO-K1, 24 h
Description: Cytotoxicity against CHOK1 cells assessed as reduction in ATP levels incubated for 24 hrs by ATPlite luminescence assay

[3] = buffer
Description: Solubility of the compound in PBS with 0.2% Tween80 using nanosuspension formulation

[4] = in vitro; settings: human, microsomes
Description: Drug metabolism in human liver microsomes at 5 uM incubated for 30 mins by UPLC-MS/MS analysis

[5] = in vivo; settings: Wistar, rat, po, 30 mg/kg
[6] = physchem; settings: octanol/water
Description: Lipophilicity, log D of compound

[7] = target: hERG (KCNH2) (Homo sapiens, UniProt Q12809); assay: in vitro
Description: Inhibition of human ERG at 10 uM relative to control

[8] = target: NaV1.5 (Homo sapiens, UniProt Q14524); assay: in vitro
Description: Inhibition of NaV1.5 (unknown origin) at 10 uM relative to control

[9] = target: Cav1.2 (Homo sapiens, UniProt Q13936); assay: in vitro
Description: Inhibition of Cav1.2 (unknown origin) at 10 uM relative to control

[10] = in vivo; settings: Sprague-Dawley, rat, inhaled or intranasal, 3 mg/kg
[11] = buffer, pH 1.2
Description: Chemical stability of compound at pH 1.2 to 9

[12] = in vitro; settings: rat, plasma
Description: Protein binding in rat plasma by LC-MS/MS-based equilibrium dialysis method

[13] = rat, in vivo, inhaled or intranasal, 3 mg/kg, 24 h
Description: Free maximum concentration of drug in Sprague-Dawley rat at 3 mg/kg administered intratracheally as nanosuspension measured up to 24 hrs by LC-MS/MS analysis

[14] = in vitro; settings: rat, microsomes
Description: Drug metabolism in rat liver microsomes at 5 uM incubated for 30 mins by UPLC-MS/MS analysis

[15] = in vivo; settings: Wistar, rat, po, 30 mg/kg; remark: listed apart in the source
[16] = buffer; remark: listed apart in the source
Description: Solubility of the compound in sterile water with 0.2% Tween80 using nanosuspension formulation

[17] = in vivo; settings: Wistar, rat, inhaled or intranasal
Description: Half life in Wistar rat at 0.41 mg/kg administered intratracheally as nanosuspension measured up to 24 hrs by LC-MS/MS analysis

[18] = in vivo; settings: Wistar, rat, inhaled or intranasal; remark: listed apart in the source
[19] = in vitro; settings: PAMPA
Description: Apparent permeability of compound at 20 uM measured after 5 hrs by PAMPA

[20] = in vitro; settings: human, plasma
Description: Protein binding in human plasma by LC-MS/MS-based equilibrium dialysis method

Tyrosine-protein kinase JAK1, sequence (P23458 whole entry): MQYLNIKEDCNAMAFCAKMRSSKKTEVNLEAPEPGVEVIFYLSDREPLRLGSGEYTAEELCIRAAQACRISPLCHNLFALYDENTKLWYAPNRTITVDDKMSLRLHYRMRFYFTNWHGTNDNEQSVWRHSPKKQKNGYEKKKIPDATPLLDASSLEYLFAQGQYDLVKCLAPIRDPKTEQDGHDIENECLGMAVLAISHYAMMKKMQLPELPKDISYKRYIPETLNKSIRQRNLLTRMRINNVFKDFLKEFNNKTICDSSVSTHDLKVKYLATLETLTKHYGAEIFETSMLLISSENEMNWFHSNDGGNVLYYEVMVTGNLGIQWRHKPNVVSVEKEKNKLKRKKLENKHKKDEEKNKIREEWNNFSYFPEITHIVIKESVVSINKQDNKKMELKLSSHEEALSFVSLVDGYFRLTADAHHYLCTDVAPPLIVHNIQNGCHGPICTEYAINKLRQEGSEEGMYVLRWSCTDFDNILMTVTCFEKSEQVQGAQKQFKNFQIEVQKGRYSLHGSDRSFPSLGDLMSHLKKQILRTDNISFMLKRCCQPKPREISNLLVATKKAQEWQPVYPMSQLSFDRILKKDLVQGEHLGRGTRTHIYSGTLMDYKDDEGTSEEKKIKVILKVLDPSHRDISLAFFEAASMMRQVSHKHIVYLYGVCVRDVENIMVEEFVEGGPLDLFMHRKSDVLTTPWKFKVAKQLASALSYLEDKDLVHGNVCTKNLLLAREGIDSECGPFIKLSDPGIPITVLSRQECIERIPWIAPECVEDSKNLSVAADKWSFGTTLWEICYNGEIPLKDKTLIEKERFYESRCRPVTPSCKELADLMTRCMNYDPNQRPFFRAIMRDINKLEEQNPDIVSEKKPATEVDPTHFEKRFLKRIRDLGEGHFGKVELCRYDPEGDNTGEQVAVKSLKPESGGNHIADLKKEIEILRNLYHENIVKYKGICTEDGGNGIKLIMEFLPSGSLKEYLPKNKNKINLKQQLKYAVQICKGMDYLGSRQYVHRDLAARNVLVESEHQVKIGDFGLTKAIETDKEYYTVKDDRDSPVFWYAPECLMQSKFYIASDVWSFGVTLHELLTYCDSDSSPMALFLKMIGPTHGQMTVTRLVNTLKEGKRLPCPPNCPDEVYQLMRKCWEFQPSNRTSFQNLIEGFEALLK
Cav1.2, sequence (Q13936 whole entry): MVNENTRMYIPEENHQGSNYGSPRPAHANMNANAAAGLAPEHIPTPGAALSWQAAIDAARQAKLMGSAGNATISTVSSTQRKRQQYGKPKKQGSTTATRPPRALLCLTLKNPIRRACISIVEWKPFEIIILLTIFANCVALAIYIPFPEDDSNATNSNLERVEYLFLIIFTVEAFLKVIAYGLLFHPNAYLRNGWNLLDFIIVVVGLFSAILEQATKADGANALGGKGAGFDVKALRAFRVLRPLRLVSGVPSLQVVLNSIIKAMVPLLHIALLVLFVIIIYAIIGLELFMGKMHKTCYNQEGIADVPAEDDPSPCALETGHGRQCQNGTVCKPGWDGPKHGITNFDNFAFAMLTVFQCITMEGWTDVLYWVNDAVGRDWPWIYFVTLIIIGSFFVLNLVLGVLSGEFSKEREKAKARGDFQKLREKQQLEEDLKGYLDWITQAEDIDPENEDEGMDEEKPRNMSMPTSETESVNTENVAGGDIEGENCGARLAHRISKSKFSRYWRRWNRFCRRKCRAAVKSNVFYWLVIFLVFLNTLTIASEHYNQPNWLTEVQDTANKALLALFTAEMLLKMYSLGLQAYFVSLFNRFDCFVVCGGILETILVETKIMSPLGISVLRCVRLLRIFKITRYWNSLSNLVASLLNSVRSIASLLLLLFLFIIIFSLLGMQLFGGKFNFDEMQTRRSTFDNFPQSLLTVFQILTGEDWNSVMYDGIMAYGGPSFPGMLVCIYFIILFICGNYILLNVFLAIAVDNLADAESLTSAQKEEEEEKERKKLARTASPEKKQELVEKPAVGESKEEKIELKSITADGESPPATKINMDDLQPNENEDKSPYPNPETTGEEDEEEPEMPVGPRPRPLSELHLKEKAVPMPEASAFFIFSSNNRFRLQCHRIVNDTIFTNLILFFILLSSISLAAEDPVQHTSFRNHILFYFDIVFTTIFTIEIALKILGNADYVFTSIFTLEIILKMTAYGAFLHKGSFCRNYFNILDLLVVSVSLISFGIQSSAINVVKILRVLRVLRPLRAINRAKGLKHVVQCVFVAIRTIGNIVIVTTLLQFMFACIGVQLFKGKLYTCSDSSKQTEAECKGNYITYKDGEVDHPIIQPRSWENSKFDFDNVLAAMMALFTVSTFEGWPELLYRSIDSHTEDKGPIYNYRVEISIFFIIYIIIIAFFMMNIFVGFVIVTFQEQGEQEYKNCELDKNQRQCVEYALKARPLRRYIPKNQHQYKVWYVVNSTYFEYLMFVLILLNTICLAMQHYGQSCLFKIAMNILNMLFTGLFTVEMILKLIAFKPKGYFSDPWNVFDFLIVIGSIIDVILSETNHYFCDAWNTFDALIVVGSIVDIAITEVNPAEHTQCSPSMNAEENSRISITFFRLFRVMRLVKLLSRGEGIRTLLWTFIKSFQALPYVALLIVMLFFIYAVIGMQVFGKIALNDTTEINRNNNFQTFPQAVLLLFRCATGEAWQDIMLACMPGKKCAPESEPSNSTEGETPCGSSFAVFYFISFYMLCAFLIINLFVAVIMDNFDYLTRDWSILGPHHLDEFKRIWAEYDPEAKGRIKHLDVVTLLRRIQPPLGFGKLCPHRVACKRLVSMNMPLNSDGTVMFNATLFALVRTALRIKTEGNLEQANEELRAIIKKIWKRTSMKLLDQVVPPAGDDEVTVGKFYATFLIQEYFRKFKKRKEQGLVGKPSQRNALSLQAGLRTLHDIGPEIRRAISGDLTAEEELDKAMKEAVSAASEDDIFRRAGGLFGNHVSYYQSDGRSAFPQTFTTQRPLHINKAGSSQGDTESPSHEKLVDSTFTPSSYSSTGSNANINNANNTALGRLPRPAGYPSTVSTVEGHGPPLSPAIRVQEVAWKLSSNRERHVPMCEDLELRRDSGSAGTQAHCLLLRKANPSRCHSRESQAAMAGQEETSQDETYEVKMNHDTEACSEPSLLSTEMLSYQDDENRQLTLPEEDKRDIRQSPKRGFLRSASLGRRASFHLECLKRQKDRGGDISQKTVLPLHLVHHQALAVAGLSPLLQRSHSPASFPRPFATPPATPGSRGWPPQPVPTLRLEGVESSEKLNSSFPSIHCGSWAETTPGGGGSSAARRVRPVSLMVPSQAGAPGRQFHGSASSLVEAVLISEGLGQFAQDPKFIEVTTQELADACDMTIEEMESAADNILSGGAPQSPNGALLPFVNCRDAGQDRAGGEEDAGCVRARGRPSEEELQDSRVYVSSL
hERG (KCNH2), sequence (Q12809 whole entry): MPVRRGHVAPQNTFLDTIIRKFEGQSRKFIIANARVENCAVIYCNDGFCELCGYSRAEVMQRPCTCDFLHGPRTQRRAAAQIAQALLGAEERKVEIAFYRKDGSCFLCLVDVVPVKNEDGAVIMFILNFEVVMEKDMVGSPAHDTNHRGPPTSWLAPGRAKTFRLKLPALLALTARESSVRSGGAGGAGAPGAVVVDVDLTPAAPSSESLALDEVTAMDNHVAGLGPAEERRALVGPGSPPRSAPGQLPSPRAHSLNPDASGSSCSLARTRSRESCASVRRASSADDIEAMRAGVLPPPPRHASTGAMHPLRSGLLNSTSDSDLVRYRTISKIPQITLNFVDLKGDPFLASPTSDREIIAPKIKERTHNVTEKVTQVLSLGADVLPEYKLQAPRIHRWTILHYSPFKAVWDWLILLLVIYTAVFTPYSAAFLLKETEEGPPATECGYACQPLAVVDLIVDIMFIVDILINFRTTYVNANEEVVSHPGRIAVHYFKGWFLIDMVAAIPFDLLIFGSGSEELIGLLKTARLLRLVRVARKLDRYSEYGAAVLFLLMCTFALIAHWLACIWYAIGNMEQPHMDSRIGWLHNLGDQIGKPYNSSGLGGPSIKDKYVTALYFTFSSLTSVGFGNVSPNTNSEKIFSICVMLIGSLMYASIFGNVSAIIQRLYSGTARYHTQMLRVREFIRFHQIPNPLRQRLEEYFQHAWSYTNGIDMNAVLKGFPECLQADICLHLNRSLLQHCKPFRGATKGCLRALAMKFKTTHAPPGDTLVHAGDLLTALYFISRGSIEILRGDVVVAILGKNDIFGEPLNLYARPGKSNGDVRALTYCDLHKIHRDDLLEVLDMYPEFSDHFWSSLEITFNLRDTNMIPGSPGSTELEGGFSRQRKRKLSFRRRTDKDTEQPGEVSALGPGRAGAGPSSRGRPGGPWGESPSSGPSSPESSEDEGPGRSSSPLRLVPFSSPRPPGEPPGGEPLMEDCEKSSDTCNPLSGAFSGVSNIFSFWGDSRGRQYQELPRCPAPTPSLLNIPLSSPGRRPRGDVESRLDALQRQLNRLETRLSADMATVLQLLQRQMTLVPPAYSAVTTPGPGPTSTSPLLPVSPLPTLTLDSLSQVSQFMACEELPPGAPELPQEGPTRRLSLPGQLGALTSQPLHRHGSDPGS

IC50 [1]: 0.024 µM
Compound: O=c1[nH]c2cnc(-c3cnc4ccc(F)cn34)nc2n1[C@@H]1CCOc2c(F)cccc21
IC50 [2]: 4 µM

Compound: C[C@H](c1ccc(F)cn1)n1c(=O)[nH]c2cnc(Nc3ccc[nH]c3=O)nc21
IC50 [2]: > 100 µM

solubility [3]: Soluble | metabolised at 0.5 h, 5 µM [4]: 21% | AUC(0-inf) at 24 h [5]: 32 ng·h/mL | logD [6]: 2.1 | AUC at 24 h [10]: 406 ng·h/mL | Stability [11]: Stable | fraction unbound [12]: 0.21 | fCmax [13]: 57 ng/mL | metabolised at 0.5 h, 5 µM [14]: 17% | Cmax at 24 h [15]: 7 ng/mL | solubility [16]: Soluble | half-life at 24 h [17]: 16.3 h | AUC at 24 h [18]: 118 ng·h/mL | Papp at 5 h, 20 µM [19]: 0.61 ×10⁻⁶ cm/s | fraction unbound [20]: 0.17
Compound: N#CC[C@H]1CC[C@H](n2c(=O)[nH]c3cnc(Nc4ccc[nH]c4=O)nc32)CC1
inhibition at 10 µM [7]: < 15% | inhibition at 10 µM [8]: < 15% | inhibition at 10 µM [9]: < 15% | IC50 [2]: > 100 µM

Compound: O=c1[nH]c2cnc(-c3cnc4ccc(F)cn34)nc2n1[C@H]1CC[C@H](O)CC1
IC50 [2]: 100 µM

IC50 [1]: 0.0035 µM
Compound: C[C@H](c1ncc(F)cn1)n1c(=O)[nH]c2cnc(-c3cnc4ccc(F)cn34)nc21
IC50 [2]: 4.3 µM

Compound: O=c1[nH]cc(Cl)cc1Nc1ncc2[nH]c(=O)n([C@@H]3CCOc4c(F)cccc43)c2n1
IC50 [2]: 36 µM

Compound: C[C@H](c1ccc(F)cn1)n1c(=O)[nH]c2cnc(Nc3cc(F)c[nH]c3=O)nc21
IC50 [2]: > 100 µM

Compound: O=c1[nH]cc(F)cc1Nc1ncc2[nH]c(=O)n([C@@H]3CCOc4c(F)cccc43)c2n1
IC50 [2]: > 100 µM

Compound: Cc1c[nH]c(=O)c(Nc2ncc3[nH]c(=O)n([C@@H]4CCOc5c(F)cccc54)c3n2)c1
IC50 [2]: 51 µM

IC50 [1]: 0.079 µM
Compound: C[C@]1(O)CC[C@H](n2c(=O)[nH]c3cnc(-c4cnc5ccc(F)cn45)nc32)CC1
IC50 [2]: 16 µM
